Reference: the NIST ThermoML archive (doi:10.1016/j.jct.2017.08.004)

Experiment: molar heat capacity at constant pressure
Conditions: 101.33 kPa

OC[C@@H](O)C(O)[C@H](O)CO [D-arabitol]
molar heat capacity at constant pressure [J/K/mol]
Conditions	Small sample (50 mg) DSC	relaxation calorimetry
1 K, Crystal	–	0.0009451
1.937 K, Crystal	–	0.004787
2 K, Crystal	–	0.005256
2.125 K, Crystal	–	0.006243
2.35 K, Crystal	–	0.008303
2.6 K, Crystal	–	0.01105
2.887 K, Crystal	–	0.01495
3 K, Crystal	–	0.01673
3.199 K, Crystal	–	0.02023
3.546 K, Crystal	–	0.02753
3.931 K, Crystal	–	0.03744
4 K, Crystal	–	0.04001
4.359 K, Crystal	–	0.05185
4.836 K, Crystal	–	0.07292
5 K, Crystal	–	0.08105
5.366 K, Crystal	–	0.1017
5.953 K, Crystal	–	0.1443
6 K, Crystal	–	0.1475
6.605 K, Crystal	–	0.205
7 K, Crystal	–	0.2508
7.334 K, Crystal	–	0.2964
8 K, Crystal	–	0.4038
8.14 K, Crystal	–	0.43
9 K, Crystal	–	0.6157
9.034 K, Crystal	–	0.6226
10 K, Crystal	–	0.8917
10.11 K, Crystal	–	0.9222
11.21 K, Crystal	–	1.313
12.44 K, Crystal	–	1.849
13.81 K, Crystal	–	2.558
15 K, Crystal	–	3.255
15.35 K, Crystal	–	3.473
17.03 K, Crystal	–	4.645
18.91 K, Crystal	–	6.093
20 K, Crystal	–	6.963
21.01 K, Crystal	–	7.823
23.33 K, Crystal	–	9.878
25 K, Crystal	–	11.45
25.91 K, Crystal	–	12.28
28.73 K, Crystal	–	15.02
30 K, Crystal	–	16.29
31.9 K, Crystal	–	18.17
35 K, Crystal	–	21.27
35.42 K, Crystal	–	21.72
39.33 K, Crystal	–	25.68
40 K, Crystal	–	26.29
43.65 K, Crystal	–	29.96
45 K, Crystal	–	31.26
48.46 K, Crystal	–	34.52
50 K, Crystal	–	36.09
53.77 K, Crystal	–	39.56
55 K, Crystal	–	40.76
59.7 K, Crystal	–	45.1
60 K, Crystal	–	45.36
65 K, Crystal	–	49.82
66.28 K, Crystal	–	51.01
70 K, Crystal	–	54.16
73.58 K, Crystal	–	57.16
75 K, Crystal	–	58.37
80 K, Crystal	–	62.48
81.67 K, Crystal	–	64.04
85 K, Crystal	–	66.48
90 K, Crystal	–	70.37
90.67 K, Crystal	–	71
95 K, Crystal	–	74.17
100 K, Crystal	–	77.87
100.64 K, Crystal	–	77.78
110 K, Crystal	–	85.02
110.77 K, Crystal	–	85.2
120 K, Crystal	–	91.85
120.77 K, Crystal	–	92.62
130 K, Crystal	–	98.42
130.79 K, Crystal	–	99.38
140 K, Crystal	–	104.78
140.95 K, Crystal	–	105.44
150 K, Crystal	–	110.97
151.07 K, Crystal	–	111.74
160 K, Crystal	–	117.04
161.18 K, Crystal	–	117.79
170 K, Crystal	–	123.02
171.3 K, Crystal	–	123.63
180 K, Crystal	–	128.94
181.38 K, Crystal	–	129.86
188.15 K, Crystal	120.48	–
189.15 K, Crystal	123.07	–
190 K, Crystal	–	134.84
190.15 K, Crystal	124.65	–
191.15 K, Crystal	125.58	–
191.48 K, Crystal	–	135.82
192.15 K, Crystal	126.38	–
193.15 K, Crystal	127.14	–
194.15 K, Crystal	128.51	–
195.15 K, Crystal	129.68	–
196.15 K, Crystal	130.93	–
197.15 K, Crystal	131.96	–
198.15 K, Crystal	132.82	–
199.15 K, Crystal	133.79	–
200 K, Crystal	–	140.73
200.15 K, Crystal	134.6	–
201.15 K, Crystal	135.54	–
201.59 K, Crystal	–	141.2
202.15 K, Crystal	136.28	–
203.15 K, Crystal	137.06	–
204.15 K, Crystal	137.97	–
205.15 K, Crystal	138.38	–
206.15 K, Crystal	139.19	–
207.15 K, Crystal	139.97	–
208.15 K, Crystal	140.52	–
209.15 K, Crystal	141.24	–
210 K, Crystal	–	146.63
210.15 K, Crystal	141.94	–
211.15 K, Crystal	142.48	–
211.7 K, Crystal	–	147.25
212.15 K, Crystal	142.99	–
213.15 K, Crystal	143.53	–
214.15 K, Crystal	144.41	–
215.15 K, Crystal	145.07	–
216.15 K, Crystal	145.48	–
217.15 K, Crystal	146.17	–
218.15 K, Crystal	147.07	–
219.15 K, Crystal	147.64	–
220 K, Crystal	–	152.57
220.15 K, Crystal	148.47	–
221.15 K, Crystal	149.24	–
221.79 K, Crystal	–	153.65
222.15 K, Crystal	149.98	–
223.15 K, Crystal	150.71	–
224.15 K, Crystal	151.3	–
225.15 K, Crystal	152.01	–
226.15 K, Crystal	152.68	–
227.15 K, Crystal	153.31	–
228.15 K, Crystal	153.85	–
229.15 K, Crystal	154.52	–
230 K, Crystal	–	158.55
230.15 K, Crystal	155.25	–
231.15 K, Crystal	155.76	–
231.88 K, Crystal	–	159.8
232.15 K, Crystal	156.46	–
233.15 K, Crystal	157.18	–
234.15 K, Crystal	157.71	–
235.15 K, Crystal	158.49	–
236.15 K, Crystal	159.12	–
237.15 K, Crystal	159.84	–
238.15 K, Crystal	160.39	–
239.15 K, Crystal	160.99	–
240 K, Crystal	–	164.59
240.15 K, Crystal	161.64	–
241.15 K, Crystal	162.22	–
241.88 K, Crystal	–	165.73
242.15 K, Crystal	162.77	–
243.15 K, Crystal	163.32	–
244.15 K, Crystal	163.71	–
245.15 K, Crystal	164.33	–
246.15 K, Crystal	165.01	–
247.15 K, Crystal	165.5	–
248.15 K, Crystal	166.22	–
249.15 K, Crystal	167	–
250 K, Crystal	–	170.71
250.15 K, Crystal	167.62	–
251.15 K, Crystal	168.09	–
252.02 K, Crystal	–	171.93
252.15 K, Crystal	168.72	–
253.15 K, Crystal	169.42	–
254.15 K, Crystal	170.21	–
255.15 K, Crystal	170.83	–
256.15 K, Crystal	171.49	–
257.15 K, Crystal	172.29	–
258.15 K, Crystal	172.95	–
259.15 K, Crystal	173.8	–
260 K, Crystal	–	176.9
260.15 K, Crystal	174.49	–
261.15 K, Crystal	175.07	–
262.08 K, Crystal	–	178.58
262.15 K, Crystal	175.71	–
263.15 K, Crystal	176.2	–
264.15 K, Crystal	176.94	–
265.15 K, Crystal	177.53	–
266.15 K, Crystal	177.9	–
267.15 K, Crystal	178.76	–
268.15 K, Crystal	179.47	–
269.15 K, Crystal	180.14	–
270 K, Crystal	–	183.17
270.15 K, Crystal	180.88	–
271.15 K, Crystal	181.55	–
272.1 K, Crystal	–	184.8
272.15 K, Crystal	182.34	–
273.15 K, Crystal	183.05	185.17
274.15 K, Crystal	183.84	–
275.15 K, Crystal	184.43	–
276.15 K, Crystal	185.01	–
277.15 K, Crystal	185.89	–
278.15 K, Crystal	186.82	–
279.15 K, Crystal	187.46	–
280 K, Crystal	–	189.54
280.15 K, Crystal	187.87	–
281.15 K, Crystal	188.79	–
282.15 K, Crystal	189.61	–
282.16 K, Crystal	–	190.77
283.15 K, Crystal	190.26	–
284.15 K, Crystal	190.76	–
285.15 K, Crystal	191.48	–
286.15 K, Crystal	192.29	–
287.15 K, Crystal	192.88	–
288.15 K, Crystal	193.55	–
289.15 K, Crystal	194.1	–
290 K, Crystal	–	196
290.15 K, Crystal	195.02	–
291.15 K, Crystal	195.84	–
292.15 K, Crystal	196.49	–
292.31 K, Crystal	–	197.61
293.15 K, Crystal	197.3	–
294.15 K, Crystal	198.27	–
295.15 K, Crystal	198.8	–
296.15 K, Crystal	199.7	–
297.15 K, Crystal	200.51	–
298.15 K, Crystal	201.09	201.35
299.15 K, Crystal	201.8	–
300 K, Crystal	–	202.57
300.15 K, Crystal	202.43	–
301.15 K, Crystal	203.27	–
302.15 K, Crystal	203.89	–
302.32 K, Crystal	–	203.84
303.15 K, Crystal	204.69	–
304.15 K, Crystal	205.64	–
305 K, Crystal	206.38	–
305.15 K, Crystal	206.52	–
306.15 K, Crystal	207.29	–
307.15 K, Crystal	207.99	–
308.15 K, Crystal	209.04	–
309.15 K, Crystal	210.24	–
310 K, Crystal	210.77	–
310.15 K, Crystal	211.11	–
311.15 K, Crystal	212.09	–
312.15 K, Crystal	213.04	–
313.15 K, Crystal	213.93	–
314.15 K, Crystal	214.62	–
315 K, Crystal	215.3	–
315.15 K, Crystal	215.49	–
316.15 K, Crystal	216.44	–
317.15 K, Crystal	217.32	–
318.15 K, Crystal	218.08	–
319.15 K, Crystal	218.98	–
320 K, Crystal	219.92	–
320.15 K, Crystal	219.94	–
321.15 K, Crystal	220.72	–
322.15 K, Crystal	221.63	–
323.15 K, Crystal	222.6	–
324.15 K, Crystal	223.41	–
325 K, Crystal	224.62	–
325.15 K, Crystal	224.24	–
326.15 K, Crystal	225.48	–
327.15 K, Crystal	226.61	–
328.15 K, Crystal	227.57	–
329.15 K, Crystal	228.54	–
330 K, Crystal	229.51	–
330.15 K, Crystal	229.69	–
331.15 K, Crystal	231.05	–
332.15 K, Crystal	232.16	–
333.15 K, Crystal	233.08	–
334.15 K, Crystal	234.14	–
335 K, Crystal	234.75	–
335.15 K, Crystal	235.21	–
336.15 K, Crystal	236.36	–
337.15 K, Crystal	237.46	–
338.15 K, Crystal	238.56	–
339.15 K, Crystal	239.77	–
340 K, Crystal	240.61	–
340.15 K, Crystal	240.89	–
341.15 K, Crystal	242.17	–
342.15 K, Crystal	243.41	–
343.15 K, Crystal	244.65	–
344.15 K, Crystal	245.91	–
345 K, Crystal	247.41	–
345.15 K, Crystal	247.41	–
346.15 K, Crystal	248.94	–
350 K, Crystal	255.58	–
394.05 K, Liquid	448.1	–
394.15 K, Liquid	448.11	–
395 K, Liquid	447.62	–
395.15 K, Liquid	447.51	–
396.15 K, Liquid	447.26	–
397.15 K, Liquid	446.68	–
398.15 K, Liquid	446.29	–
399.15 K, Liquid	446.43	–
400 K, Liquid	446.52	–
400.15 K, Liquid	446.4	–
401.15 K, Liquid	446.31	–
402.15 K, Liquid	446.59	–
403.15 K, Liquid	447.05	–
404.15 K, Liquid	446.97	–
405 K, Liquid	447.4	–
405.15 K, Liquid	447.29	–
406.15 K, Liquid	447.83	–
407.15 K, Liquid	447.84	–
408.15 K, Liquid	448.15	–
409.15 K, Liquid	448.6	–
410 K, Liquid	449.23	–
410.15 K, Liquid	448.95	–
411.15 K, Liquid	449.41	–
412.15 K, Liquid	449.97	–
413.15 K, Liquid	450.76	–
414.15 K, Liquid	451.47	–
415 K, Liquid	452.02	–
415.15 K, Liquid	452.79	–
416.15 K, Liquid	453.35	–
417.15 K, Liquid	453.87	–
418.15 K, Liquid	454.54	–
419.15 K, Liquid	456.24	–
420 K, Liquid	455.76	–
420.15 K, Liquid	456.5	–
421.15 K, Liquid	457.07	–
422.15 K, Liquid	457.63	–
423.15 K, Liquid	457.94	–
424.15 K, Liquid	458.28	–
